Measured values published in the Kinase Knowledgebase extract (Sharma et al. 2016).

The compounds below were run against MAPK14 (human) (UniProt Q16539) (assay: Inhibition of MAPK14 Kinase Activity).
MAPK14 (human), sequence (Q16539 whole entry, looked up): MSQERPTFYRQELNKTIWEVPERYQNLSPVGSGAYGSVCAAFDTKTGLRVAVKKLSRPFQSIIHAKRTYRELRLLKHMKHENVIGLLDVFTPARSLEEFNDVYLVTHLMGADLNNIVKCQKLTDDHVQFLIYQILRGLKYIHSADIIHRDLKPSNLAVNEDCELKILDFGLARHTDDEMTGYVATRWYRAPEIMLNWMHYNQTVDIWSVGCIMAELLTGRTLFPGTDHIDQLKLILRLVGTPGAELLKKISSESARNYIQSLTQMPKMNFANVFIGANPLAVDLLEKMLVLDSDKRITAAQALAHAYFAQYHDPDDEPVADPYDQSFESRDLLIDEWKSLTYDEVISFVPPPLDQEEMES

Row | SMILES | IC50 [µM]
1 | CCNC(=O)c1cc(F)c(C)c(-c2ccc3c(-c4cccnc4OC)n[nH]c3c2)c1 | < 10
2 | CNC(=O)c1cc(F)c(C)c(-c2ccc3c(cnn3-c3ccccc3)c2)c1 | < 10
3 | CCNC(=O)c1ccc(C)c(-c2ccc3c(-c4ccc(OCC)cc4)n[nH]c3c2)c1 | < 10
4 | Cc1c(F)cc(C(=O)NC2CC2)cc1-c1ccc2c(cnn2-c2ccc(N3CCOCC3)cc2)c1 | < 10
5 | Cc1c(F)cc(C(=O)Nc2ccc(F)cc2)cc1-c1ccc2c(cnn2-c2ccccc2)c1 | < 10
6 | CCNC(=O)c1cc(F)c(C)c(-c2ccc3c(cnn3-c3ccccc3)c2)c1 | < 10
7 | CCCCNC(=O)c1cc(F)c(C)c(-c2ccc3c(cnn3-c3ccccc3)c2)c1 | < 10
8 | Cc1c(F)cc(C(=O)NC2CC2)cc1-c1ccc2c(-c3ccc(O)cc3)noc2c1 | < 10
9 | CCNC(=O)c1cc(F)c(C)c(-c2ccc3c(-c4ccc(Cl)cc4)n[nH]c3c2)c1 | < 10
10 | Cc1ccc(C(=O)Nc2c(C)noc2C)cc1-c1ccc2c(-c3ccc(F)cc3)n[nH]c2c1 | < 10
11 | Cc1c(F)cc(C(=O)NC2CC2)cc1-c1ccc2c(cnn2Cc2ccccc2)c1 | < 10
12 | Cc1ccc(C(=O)Nc2ccc(F)cc2)cc1-c1ccc2c(cnn2-c2ccccc2)c1 | < 10
13 | CNC(=O)Cc1ccc(-n2ncc3cc(-c4cc(C(=O)NC5CC5)cc(F)c4C)ccc32)cc1 | < 10
14 | CCn1nccc1NC(=O)c1cc(F)c(C)c(-c2ccc3c(-c4ccc(F)cc4)n[nH]c3c2)c1 | < 10
15 | CCNC(=O)c1cc(F)c(C)c(-c2ccc3c(-c4ccc(C)cc4)n[nH]c3c2)c1 | < 10
16 | Cc1c(F)cc(C(=O)NCC2CC2)cc1-c1ccc2c(cnn2-c2ccccc2)c1 | < 10
17 | CCNC(=O)c1cc(F)c(C)c(-c2ccc3c(-c4ncccn4)n[nH]c3c2)c1 | < 10
18 | Cc1c(F)cc(C(=O)Nc2ncccn2)cc1-c1ccc2c(cnn2-c2ccccc2)c1 | < 10
19 | CCNC(=O)c1ccc(-c2n[nH]c3cc(-c4cc(C(=O)NCC)ccc4C)ccc23)nc1 | < 10
20 | Cc1c(F)cc(C(=O)NC2CC2)cc1-c1ccc2c(cnn2-c2ccc(Br)cc2)c1 | < 10

Row | SMILES | IC50 [µM]
21 | CCNC(=O)c1cc(F)c(C)c(-c2ccc3c(-c4ccnc(C)c4)n[nH]c3c2)c1 | < 10
22 | Cc1c(F)cc(C(=O)NC2CC2)cc1-c1ccc2c(cnn2Cc2ccccn2)c1 | < 10
23 | Cc1c(F)cc(C(=O)NC2CC2)cc1-c1ccc2c(ccn2-c2ccccn2)c1 | < 10
24 | Cc1c(F)cc(C(=O)NC2CC2)cc1-c1ccc2c(cnn2-c2ccc(NCCN(C)C)cc2)c1 | < 10
25 | CCNC(=O)c1ccc(C)c(-c2ccc3c(-c4ccc(OC)cc4)n[nH]c3c2)c1 | < 10
26 | Cc1c(F)cc(C(=O)NC2CC2)cc1-c1ccc2c(cnn2-c2ccc(F)cc2)c1 | < 10
27 | Cc1c(F)cc(C(=O)NC2CC2)cc1-c1ccc2c(ccn2-c2cccnc2)c1 | < 10
28 | CCNC(=O)c1ccc(C)c(-c2ccc3c(-c4cnccn4)n[nH]c3c2)c1 | < 10
29 | Cc1ccc(C(=O)NC2CC2)cc1-c1ccc2c(-c3ccc(F)cc3)n[nH]c2c1 | < 10
30 | Cc1c(F)cc(C(=O)NC2CC2)cc1-c1ccc2c(cnn2-c2ccccc2)c1 | < 10
31 | CCNC(=O)c1cc(F)c(C)c(-c2ccc3c(-c4cccc[n+]4[O-])n[nH]c3c2)c1 | < 10
32 | CCNC(=O)c1ccc(C)c(-c2ccc3c(-c4cc(C)nn4C)n[nH]c3c2)c1 | < 10
33 | Cc1c(F)cc(C(=O)NC2CC2)cc1-c1ccc2c(ccn2-c2ccc(C#N)cc2)c1 | < 10
34 | CCNC(=O)c1cc(F)c(C)c(-c2ccc3c(-c4cnc(C)n4C)n[nH]c3c2)c1 | < 10
35 | Cc1c(F)cc(C(=O)NC2CC2)cc1-c1ccc2c(cnn2Cc2ccc(C(F)(F)F)cc2)c1 | < 10
36 | COc1ccc(C2N=Nc3cc(-c4cc(C(=O)NC5CC5)ccc4C)ccc32)cc1 (configuration not stated) | < 10
37 | Cc1c(F)cc(C(=O)Nc2cccnn2)cc1-c1ccc2c(cnn2-c2ccccc2)c1 | < 10
38 | CCNC(=O)c1ccc(C)c(-c2ccc3c(-c4ccc(S(C)(=O)=O)cc4)n[nH]c3c2)c1 | < 10
39 | Cc1cccc(-n2ncc3cc(-c4cc(C(=O)NC5CC5)cc(F)c4C)ccc32)c1 | < 10
40 | Cc1c(F)cc(C(=O)NC2CCC2)cc1-c1ccc2c(cnn2-c2ccccc2)c1 | < 10

The next lines start with the values.

Row | IC50 [µM] | SMILES
41 | < 10 | CCNC(=O)c1cc(F)c(C)c(-c2ccc3c(-c4ccc(C(F)(F)F)cc4)n[nH]c3c2)c1
42 | < 10 | Cc1c(F)cc(C(=O)NC2CC2)cc1-c1ccc2c(cnn2Cc2ccc(F)cc2)c1
43 | < 10 | Cc1c(F)cc(C(=O)Nc2cc[nH]n2)cc1-c1ccc2c(cnn2-c2ccccc2)c1
44 | < 10 | Cc1c(F)cc(C(=O)NC2CC2)cc1-c1ccc2c(cnn2Cc2ccc[n+]([O-])c2)c1
45 | < 10 | Cc1c(F)cc(C(=O)NC2CC2)cc1-c1ccc2c(cnn2-c2ccc(NCC3CCCO3)cc2)c1 (configuration not stated)
46 | < 10 | Cc1c(F)cc(C(=O)NC2CC2)cc1-c1ccc2c(cnn2-c2ccc(S(C)(=O)=O)cc2)c1
47 | < 10 | Cc1cc(F)ccc1-n1ncc2cc(-c3cc(C(=O)NC4CC4)cc(F)c3C)ccc21
48 | < 10 | Cc1ccc(C(=O)NC2CCC2)cc1-c1ccc2c(cnn2-c2ccc(F)cc2)c1
49 | < 10 | CCNC(=O)c1cc(F)c(C)c(-c2ccc3c(-c4ccc(OC)nc4)n[nH]c3c2)c1
50 | < 10 | CCNC(=O)c1ccc(C)c(-c2ccc3c(-c4cncnc4)n[nH]c3c2)c1
51 | < 10 | CCNC(=O)c1cc(F)c(C)c(-c2ccc3c(-c4ccc(F)cc4OC)n[nH]c3c2)c1
52 | < 10 | Cc1cc(Cn2ncc3cc(-c4cc(C(=O)NC5CC5)cc(F)c4C)ccc32)no1
53 | < 10 | CCNC(=O)c1cc(F)c(C)c(-c2ccc3c(-c4cccnc4)n[nH]c3c2)c1
54 | < 10 | Cc1c(F)cc(C(=O)NC2CC2)cc1-c1ccc2c(cnn2-c2ccc(NCC3CCCCC3)cc2)c1
55 | < 10 | Cc1c(F)cc(C(=O)NC(C)C)cc1-c1ccc2c(cnn2-c2ccccc2)c1
56 | < 10 | CCNC(=O)c1ccc(C)c(-c2ccc3c(-c4ccc(F)cc4)n[nH]c3c2)c1
57 | < 10 | CCNC(=O)c1cc(F)c(C)c(-c2ccc3c(-c4c(C)noc4C)n[nH]c3c2)c1
58 | < 10 | Cc1c(F)cc(C(=O)NC2CC2)cc1-c1ccc2c(cnn2-c2ccc(NC3CCOCC3)cc2)c1
59 | < 10 | Cc1c(F)cc(C(=O)NC2CC2)cc1-c1ccc2c(cnn2Cc2cccnc2)c1
60 | < 10 | Cc1c(F)cc(C(=O)Nc2cc[nH]n2)cc1-c1ccc2c(-c3ccc(F)cc3)n[nH]c2c1
61 | < 10 | Cc1c(F)cc(C(=O)NC2CC2)cc1-c1ccc2c(ccn2-c2cccc(C#N)c2)c1

Row | IC50 [µM] | SMILES
62 | < 10 | CCNC(=O)c1cc(F)c(C)c(-c2ccc3c(-c4ccc(F)cc4C)n[nH]c3c2)c1
63 | < 10 | Cc1c(F)cc(C(=O)NC2CCCC2)cc1-c1ccc2c(cnn2-c2ccccc2)c1
64 | < 10 | Cc1cc(-n2ncc3cc(-c4cc(C(=O)NC5CC5)cc(F)c4C)ccc32)nc(C)n1
65 | < 10 | Cc1ccc(C(=O)Nc2c(C)cnn2C)cc1-c1ccc2c(-c3ccc(F)cc3)n[nH]c2c1
66 | < 10 | COc1ccc(-c2noc3cc(-c4cc(C(=O)NC5CC5)cc(F)c4C)ccc23)cc1
67 | < 10 | Cc1cnn(C)c1NC(=O)c1cc(F)c(C)c(-c2ccc3c(-c4ccc(F)cc4)n[nH]c3c2)c1
68 | < 10 | Cc1c(F)cc(C(=O)NC2CC2)cc1-c1ccc2c(cnn2Cc2cc[n+]([O-])cc2)c1
69 | < 10 | CCNC(=O)c1ccc(C)c(-c2ccc3c(-c4ccc(N5CCOCC5)nc4)n[nH]c3c2)c1
70 | < 10 | Cc1c(F)cc(C(=O)NC2CC2)cc1-c1ccc2c(cnn2-c2ccc(NCC(O)CO)cc2)c1 (configuration not stated)
71 | < 10 | Cc1c(F)cc(C(=O)NC2CC2)cc1-c1ccc2c(cnn2-c2ccc(NCCCN(C)C)cc2)c1
72 | < 10 | COCCNc1ccc(-n2ncc3cc(-c4cc(C(=O)NC5CC5)cc(F)c4C)ccc32)cc1
73 | < 10 | Cc1ccc(C(=O)NC2CC2)cc1-c1ccc2c(cnn2-c2ccc(F)cc2)c1
74 | < 10 | Cc1c(F)cc(C(=O)NC2CC2)cc1-c1ccc2c(cnn2-c2cc(=O)[nH]cn2)c1
75 | < 10 | CCNC(=O)c1ccc(C)c(-c2ccc3c(-c4ccc(F)nc4)n[nH]c3c2)c1
76 | < 10 | Cc1c(F)cc(C(=O)Nc2ccnn2C)cc1-c1ccc2c(-c3ccc(F)cc3)n[nH]c2c1
77 | < 10 | Cc1c(F)cc(C(N)=O)cc1-c1ccc2c(cnn2-c2ccccc2)c1
78 | < 10 | Cc1c(F)cc(C(=O)NC2CC2)cc1-c1ccc2c(cnn2-c2ccc(C(F)(F)F)cc2)c1
79 | < 10 | CCNC(=O)c1cc(F)c(C)c(-c2ccc3c(-c4ccccn4)n[nH]c3c2)c1
80 | < 10 | CCCNC(=O)c1cc(F)c(C)c(-c2ccc3c(cnn3-c3ccccc3)c2)c1
81 | < 10 | Cc1c(F)cc(C(=O)NC2CC2)cc1-c1ccc2c(cnn2Cc2cccc[n+]2[O-])c1
82 | < 10 | Cc1c(F)cc(C(=O)NC2CC2)cc1-c1ccc2c(cnn2Cc2ccncc2)c1
